Measured values as given in patent publication US10858364B2, “Imidazopyrazine inhibitors of Bruton's tyrosine kinase” (Acerta Pharma B.V., priority 2016, dated 2020).

What was measured:
ITK = ITK (Homo sapiens (Human), UniProt Q08881); experiment: ITK enzyme activity, IMAP assay; format: biochemical; details: 60 min pre-incubation, 5 μM ATP
Protocol: ITK enzyme activity is measured using the IMAP (immobilized metal ion affinity-based fluorescence polarization) assay as outlined below.
ITK enzyme (Millipore #14-660M) is diluted to 0.2 U/mL in KR buffer (10 mM Tris-HCl, 10 mM MgCl2, 0.01% Tween-20, 0.1% NaN3, 1 mM DTT, 2 mM MnCl2, pH 7.5)
Serial dilutions log 10 from 2 mM to 63.2 nM of test compounds are made in 100% DMSO. The dilutions in DMSO are then diluted 50-fold in KR-buffer. Final compound concentration range in the assay ranged from 10 μM to 0.316 nM.
The assay is performed as follows: 5 μL/well of test compound in KR buffer (final DMSO concentration in the assay is 1%) is mixed with 5 μL/well of 0.2 U/mL ITK enzyme (final concentration in the assay is 0.05 U/mL (8.4 nM)). Test compounds and ITK enzyme are pre-incubated 60 minutes at room temperature, before adding 5 μL/well of 200 nM Fluorescin labeled substrate peptide (Blk/Lyntide substrate # R8124, Molecular Devices) in KR-buffer. Final peptide substrate concentration in assay is 50 nM. The kinase assay is started by adding 5 μL/well of 20 μM ATP in KR-buffer (final ATP concentration is 5 μM ATP, Km ATP in ITK IMAP assay). […] IC50 values are determined by curve fitting of the experimental results in Dotmatics.

anti-IgM-induced CD69 = experiment: Human PBMC anti-IgM-induced CD69 assay; format: cell-based; details: CD19+ B cells, 2 h compound, 18 h anti-IgM, read-out: hPBMC: anti-IgM-induced CD69 EC50
Protocol: Whole blood was collected in heparin-coated Vacutainer tubes (BD Biosciences, San Jose, Calif.) and used for isolation of PBMCs using Ficoll-Hypaque (Pharmacia, Uppsala, Sweden). Isolated PBMCs were cryopreserved in 90% FCS/10% DMSO until later use.
Cells from cryogenic storage were thawed in a 37° C. water bath, diluted with RPMI/1% FCS, washed 2 times, and then plated at 2×10^5 cells per well in RPMI/10% FCS in 96 well plates.
Serial dilutions […] from 10 mM to 316 nM of test compounds are made in 100% DMSO, followed by a 100-fold dilution into RPMI/1% FCS. For each well, 10 μL was then transferred to the deep well plate containing 90 μL of PBMC cells. […]
Following stimulation with anti-IgM, PBMCs were incubated on ice for 30 min with anti-CD69-FITC, anti-CD19-BV421 (BD Biosciences #555530 and #562440, respectively) and 7AAD (Life Technologies # A1310). Flow cytometry was performed and fluorescence values were obtained from the CD69-FITC channel in CD19+ gated life B cells. EC50 values are determined by curve fitting of the experimental results using GraphPad Prism.
PBMC assay: Cryopreserved PBMC were thawed, washed, and suspended at 2×10^5 cells/well in RPMI+10% FBS in 96-well plates. […] EC50 values were determined by curve fitting of the experimental results using Dotmatics. […]

Sequence of ITK (Q08881 whole entry): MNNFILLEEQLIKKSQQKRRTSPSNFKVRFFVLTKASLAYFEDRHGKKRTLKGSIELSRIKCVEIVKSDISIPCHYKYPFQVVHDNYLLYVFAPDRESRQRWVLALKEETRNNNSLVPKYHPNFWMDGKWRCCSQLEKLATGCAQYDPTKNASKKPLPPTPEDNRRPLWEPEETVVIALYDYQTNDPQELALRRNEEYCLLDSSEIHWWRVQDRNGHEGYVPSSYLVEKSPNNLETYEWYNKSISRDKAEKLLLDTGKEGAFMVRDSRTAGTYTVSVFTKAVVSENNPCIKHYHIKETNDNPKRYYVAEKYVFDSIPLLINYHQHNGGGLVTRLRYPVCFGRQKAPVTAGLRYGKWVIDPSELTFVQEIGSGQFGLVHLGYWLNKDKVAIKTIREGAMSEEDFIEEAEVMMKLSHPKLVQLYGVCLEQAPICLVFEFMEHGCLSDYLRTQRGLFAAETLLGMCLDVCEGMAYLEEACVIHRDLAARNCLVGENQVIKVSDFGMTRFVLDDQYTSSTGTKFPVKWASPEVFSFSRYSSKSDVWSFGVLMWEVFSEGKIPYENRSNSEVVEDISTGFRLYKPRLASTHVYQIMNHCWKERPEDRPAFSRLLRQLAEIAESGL

| IC50 (ITK) | EC50 (anti-IgM-induced CD69) | Compound |
| --- | --- | --- |
| > 10000 nM | 19 ± 6 nM | CC#CC(=O)NCCCC(=O)c1nc(-c2ccc(C(=O)Nc3ccccn3)c(OC)c2)c2c(N)nccn12 [Formula (II), 4-(8-amino-3-(4-(but-2-ynamido)butanoyl)imidazo[1,5-a]pyrazin-1-yl)-2-methoxy-N-(pyridin-2-yl)benzamide] |
| > 10000 nM | 26 ± 16 nM | CC#CC(=O)NCCCC(=O)c1nc(-c2ccc(C(=O)Nc3ccccn3)cc2)c2c(N)nccn12 [Formula (I), 4-(8-amino-3-(4-(but-2-ynamido)butanoyl)imidazo[1,5-a]pyrazin-1-yl)-N-(pyridin-2-yl)benzamide] |
